Assay results taken from patent US10004701B2, “Methods and compositions for treating infection” (UNIVERSITY OF ROCHESTER, priority 2012, dated 2018).
Counter-ions that a name gives are not always drawn. Like-named read-outs stand apart in the source and are kept apart here.

Tests used:
Assay in all cases: AK assay 384-well format, Prestwick library screening
E. coli = assay type: cell-based, Escherichia coli; conditions: for fold induction at 50 µM: Escherichia coli, 3 h
E. faecium = assay type: cell-based, Enterococcus faecium; conditions: 50 μM final drug concentration; for fold induction at 50 µM: Enterococcus faecium, 3 h
[1] = tested on: A. baumannii strain 98-37-09; assay type: cell-based, Acinetobacter baumannii; conditions: 50 μM final drug concentration; for fold induction at 50 µM: Acinetobacter baumannii, 983709, 3 h
[2] = tested on: S. aureus strain USA300-0114; assay type: cell-based, Staphylococcus aureus; conditions: 50 μM final drug concentration; for fold induction at 50 µM: Staphylococcus aureus, USA300, 3 h
E. cloacae = assay type: cell-based, Enterobacter cloacae; conditions: 50 μM final drug concentration; for fold induction at 50 µM: Enterobacter cloacae, 3 h
K. pneumoniae = assay type: cell-based, Klebsiella pneumoniae; conditions: 50 μM final drug concentration; for fold induction at 50 µM: Klebsiella pneumoniae, 3 h
P. aeruginosa = assay type: cell-based, Pseudomonas aeruginosa; conditions: 50 μM final drug concentration; for fold induction at 50 µM: Pseudomonas aeruginosa, 3 h
[3] = cutoff for positive-scoring molecules 3-fold increase, read-out: AK-based Prestwick Library Screening Results, E. faecium (fold increase in extracellular AK activity)
[4] = cutoff for positive-scoring molecules 3-fold increase, read-out: AK-based Prestwick Library Screening Results, A. baumannii (fold increase in extracellular AK activity)
[5] = cutoff for positive-scoring molecules 3-fold increase, read-out: AK-based Prestwick Library Screening Results, S. aureus (fold increase in extracellular AK activity)
[6] = cutoff for positive-scoring molecules 3-fold increase, read-out: AK-based Prestwick Library Screening Results, E. cloacae (fold increase in extracellular AK activity)
[7] = cutoff for positive-scoring molecules 3-fold increase, read-out: AK-based Prestwick Library Screening Results, K. pneumoniae (fold increase in extracellular AK activity)
[8] = cutoff for positive-scoring molecules 3-fold increase, read-out: AK-based Prestwick Library Screening Results, P. aeruginosa (fold increase in extracellular AK activity)
[9] = planktonic E. coli, 50 μM final drug concentration, 384-well, cutoff for positive-scoring molecules 3-fold increase, read-out: AK-based Prestwick Library Screening Results: E. coli (increase in extracellular AK activity)
[10] = planktonic E. faecium, 384-well, cutoff for positive-scoring molecules 3-fold increase, read-out: AK-based Prestwick Library Screening Results: E. faecium (increase in extracellular AK activity)
[11] = planktonic A. baumannii, 384-well, cutoff for positive-scoring molecules 3-fold increase, read-out: AK-based Prestwick Library Screening Results: A. baumannii (increase in extracellular AK activity)
[12] = planktonic S. aureus, 384-well, cutoff for positive-scoring molecules 3-fold increase, read-out: AK-based Prestwick Library Screening Results: S. aureus (increase in extracellular AK activity)
[13] = planktonic E. cloacae, 384-well, cutoff for positive-scoring molecules 3-fold increase, read-out: AK-based Prestwick Library Screening Results: E. cloacae (increase in extracellular AK activity)
[14] = planktonic K. pneumoniae, 384-well, cutoff for positive-scoring molecules 3-fold increase, read-out: AK-based Prestwick Library Screening Results: K. pneumoniae (increase in extracellular AK activity)
[15] = planktonic P. aeruginosa, 384-well, cutoff for positive-scoring molecules 3-fold increase, read-out: AK-based Prestwick Library Screening Results: P. aeruginosa (increase in extracellular AK activity)
[16] = planktonic E. coli, 50 μM final drug concentration, […]

N[C@@H](Cc1cc(I)c(Oc2ccc(O)c(I)c2)c(I)c1)C(=O)O [Liothyronine]
fold induction at 50 µM (E. coli; read-out: AK-based Prestwick Library Screening Results, E. coli (fold increase in extracellular AK activity)): 1.2 | fold induction at 50 µM (E. faecium; [3]): 1.1 | fold induction at 50 µM [1, 4]: 1.1 | fold induction at 50 µM [2, 5]: 1 | fold induction at 50 µM (E. cloacae; [6]): 1.6 | fold induction at 50 µM (K. pneumoniae; [7]): 0.9 | fold induction at 50 µM (P. aeruginosa; [8]): 1.1

NCCCC[C@H](N[C@@H](CCc1ccccc1)C(=O)O)C(=O)N1CCC[C@H]1C(=O)O [Lisinopril]
fold induction at 50 µM (E. coli; [9]): 1.2 | fold induction at 50 µM (E. faecium; [10]): 1 | fold induction at 50 µM [1, 11]: 1.3 | fold induction at 50 µM [2, 12]: 4.3 | fold induction at 50 µM (E. cloacae; [13]): 1.5 | fold induction at 50 µM (K. pneumoniae; [14]): 1 | fold induction at 50 µM (P. aeruginosa; [15]): 1.2

C[C@H](CCC(=O)O)[C@H]1CC[C@H]2[C@@H]3CC[C@@H]4C[C@H](O)CC[C@]4(C)[C@H]3CC[C@]12C [Lithocholic acid]
fold induction at 50 µM (E. coli; 50 μM final drug concentration, cutoff for positive-scoring molecules 3-fold increase, read-out: AK-based Prestwick Library Screening Results, E. coli (fold increase in extracellular AK activity)): 0.8 | fold induction at 50 µM (E. faecium; [3]): 1.2 | fold induction at 50 µM [1, 4]: 1 | fold induction at 50 µM [2, 5]: 1.1 | fold induction at 50 µM (E. cloacae; [6]): 1.7 | fold induction at 50 µM (K. pneumoniae; [7]): 0.8 | fold induction at 50 µM (P. aeruginosa; [8]): 1

CN1[C@@H](C[C@@H](O)c2ccccc2)CCC[C@H]1C[C@H](O)c1ccccc1.Cl [Lobelanidine hydrochloride]
AK-based Prestwick Library Screening Results, E. coli (increase in extracellular AK activity) (E. coli; [16]): 1.0 | AK-based Prestwick Library Screening Results, E. faecium (increase in extracellular AK activity) (E. faecium; planktonic E. faecium, cutoff for positive-scoring molecules 3-fold increase): 0.9 | AK-based Prestwick Library Screening Results, A. baumannii (increase in extracellular AK activity) ([1]; planktonic A. baumannii, cutoff for positive-scoring molecules 3-fold increase): 1.0 | AK-based Prestwick Library Screening Results, S. aureus (increase in extracellular AK activity) ([2]; planktonic S. aureus, cutoff for positive-scoring molecules 3-fold increase): 0.6 | AK-based Prestwick Library Screening Results, E. cloacae (increase in extracellular AK activity) (E. cloacae; planktonic E. cloacae, cutoff for positive-scoring molecules 3-fold increase): 1.0 | AK-based Prestwick Library Screening Results, K. pneumoniae (increase in extracellular AK activity) (K. pneumoniae; planktonic K. pneumoniae, cutoff for positive-scoring molecules 3-fold increase): 0.8 | AK-based Prestwick Library Screening Results, P. aeruginosa (increase in extracellular AK activity) (P. aeruginosa; planktonic P. aeruginosa, cutoff for positive-scoring molecules 3-fold increase): 1.0

CN1[C@@H](CC(=O)c2ccccc2)CCC[C@H]1C[C@H](O)c1ccccc1.Cl [Lobeline alpha (−) hydrochoride]
AK-based Prestwick Library Screening Results, E. coli (increase in extracellular AK activity) (E. coli; [16]): 1.0 | AK-based Prestwick Library Screening Results, E. faecium (increase in extracellular AK activity) (E. faecium; planktonic E. faecium, […]): 0.9 | AK-based Prestwick Library Screening Results, A. baumannii (increase in extracellular AK activity) ([1]; planktonic A. baumannii, […]): 0.8 | AK-based Prestwick Library Screening Results, S. aureus (increase in extracellular AK activity) ([2]; planktonic S. aureus, […]): 0.8 | AK-based Prestwick Library Screening Results, E. cloacae (increase in extracellular AK activity) (E. cloacae; planktonic E. cloacae, […]): 1.0 | AK-based Prestwick Library Screening Results, K. pneumoniae (increase in extracellular AK activity) (K. pneumoniae; planktonic K. pneumoniae, […]): 0.7 | AK-based Prestwick Library Screening Results, P. aeruginosa (increase in extracellular AK activity) (P. aeruginosa; planktonic P. aeruginosa, […]): 0.9

CCn1cc(C(=O)O)c(=O)c2cc(F)c(N3CCNC(C)C3)c(F)c21 (stereo not shown) [Lomefloxacin hydrochloride]
fold induction at 50 µM (E. coli; [9]): 26.8 | fold induction at 50 µM (E. faecium; [10]): 1.5 | fold induction at 50 µM [1, 11]: 3.8 | fold induction at 50 µM [2, 12]: 3.4 | fold induction at 50 µM (E. cloacae; [13]): 3.5 | fold induction at 50 µM (K. pneumoniae; [14]): 1 | fold induction at 50 µM (P. aeruginosa; [15]): 30.2

CN(C)C(=O)C(CCN1CCC(O)(c2ccc(Cl)cc2)CC1)(c1ccccc1)c1ccccc1 [Loperamide hydrochloride]
fold induction at 50 µM (E. coli; planktonic E. coli, 50 μM final drug concentration, 384-well, […], read-out: AK-based Prestwick Library Screening Results: E. coli (increase in extracellular AK activity)): 1.4 | fold induction at 50 µM (E. faecium; planktonic E. faecium, 384-well, […], read-out: AK-based Prestwick Library Screening Results: E. faecium (increase in extracellular AK activity)): 0.9 | fold induction at 50 µM ([1]; planktonic A. baumannii, 384-well, […], read-out: AK-based Prestwick Library Screening Results: A. baumannii (increase in extracellular AK activity)): 1.5 | fold induction at 50 µM ([2]; planktonic S. aureus, 384-well, […], read-out: AK-based Prestwick Library Screening Results: S. aureus (increase in extracellular AK activity)): 1 | fold induction at 50 µM (E. cloacae; planktonic E. cloacae, 384-well, […], read-out: AK-based Prestwick Library Screening Results: E. cloacae (increase in extracellular AK activity)): 1.5 | fold induction at 50 µM (K. pneumoniae; planktonic K. pneumoniae, 384-well, […], read-out: AK-based Prestwick Library Screening Results: K. pneumoniae (increase in extracellular AK activity)): 0.9 | fold induction at 50 µM (P. aeruginosa; planktonic P. aeruginosa, 384-well, […], read-out: AK-based Prestwick Library Screening Results: P. aeruginosa (increase in extracellular AK activity)): 1.2

CCCCCN(CCCCC)C(=O)C(CCC(=O)O)NC(=O)c1ccc(Cl)c(Cl)c1 (stereo not shown) [Lorglumide sodium salt]
fold induction at 50 µM (E. coli; 50 μM final drug concentration, planktonic, cutoff for positive-scoring molecules 3-fold increase, read-out: AK-based Prestwick Library Screening Results, E. coli (fold increase in extracellular AK activity)): 0.9 | fold induction at 50 µM (E. faecium; planktonic, cutoff for positive-scoring molecules 3-fold increase, read-out: AK-based Prestwick Library Screening Results, E. faecium (fold increase in extracellular AK activity)): 1 | fold induction at 50 µM ([1]; planktonic, cutoff for positive-scoring molecules 3-fold increase, read-out: AK-based Prestwick Library Screening Results, A. baumannii (fold increase in extracellular AK activity)): 0.8 | fold induction at 50 µM ([2]; planktonic, cutoff for positive-scoring molecules 3-fold increase, read-out: AK-based Prestwick Library Screening Results, S. aureus (fold increase in extracellular AK activity)): 0.3 | fold induction at 50 µM (E. cloacae; planktonic, cutoff for positive-scoring molecules 3-fold increase, read-out: AK-based Prestwick Library Screening Results, E. cloacae (fold increase in extracellular AK activity)): 1.3 | fold induction at 50 µM (K. pneumoniae; planktonic, cutoff for positive-scoring molecules 3-fold increase, read-out: AK-based Prestwick Library Screening Results, K. pneumoniae (fold increase in extracellular AK activity)): 0.7 | fold induction at 50 µM (P. aeruginosa; planktonic, cutoff for positive-scoring molecules 3-fold increase, read-out: AK-based Prestwick Library Screening Results, P. aeruginosa (fold increase in extracellular AK activity)): 0.9

CC[C@H](C)C(=O)O[C@H]1C[C@@H](C)C=C2C=C[C@H](C)[C@H](CC[C@@H]3C[C@@H](O)CC(=O)O3)[C@H]21 [Lovastatin]
fold induction at 50 µM (E. coli; planktonic E. coli, 50 μM final drug concentration, cutoff for positive-scoring molecules 3-fold increase, read-out: AK-based Prestwick Library Screening Results, E. coli (increase in extracellular AK activity)): 1 | fold induction at 50 µM (E. faecium; planktonic E. faecium, cutoff for positive-scoring molecules 3-fold increase, read-out: AK-based Prestwick Library Screening Results, E. faecium (increase in extracellular AK activity)): 1 | fold induction at 50 µM ([1]; planktonic A. baumannii, cutoff for positive-scoring molecules 3-fold increase, read-out: AK-based Prestwick Library Screening Results, A. baumannii (increase in extracellular AK activity)): 1 | fold induction at 50 µM ([2]; planktonic S. aureus, cutoff for positive-scoring molecules 3-fold increase, read-out: AK-based Prestwick Library Screening Results, S. aureus (increase in extracellular AK activity)): 0.3 | fold induction at 50 µM (E. cloacae; planktonic E. cloacae, cutoff for positive-scoring molecules 3-fold increase, read-out: AK-based Prestwick Library Screening Results, E. cloacae (increase in extracellular AK activity)): 1.2 | fold induction at 50 µM (K. pneumoniae; planktonic K. pneumoniae, cutoff for positive-scoring molecules 3-fold increase, read-out: AK-based Prestwick Library Screening Results, K. pneumoniae (increase in extracellular AK activity)): 0.8 | fold induction at 50 µM (P. aeruginosa; planktonic P. aeruginosa, cutoff for positive-scoring molecules 3-fold increase, read-out: AK-based Prestwick Library Screening Results, P. aeruginosa (increase in extracellular AK activity)): 0.8

CN1CCN(C2=Nc3ccccc3Oc3ccc(Cl)cc32)CC1 [Loxapine succinate]
fold induction at 50 µM (E. coli; [9]): 1 | fold induction at 50 µM (E. faecium; [10]): 0.9 | fold induction at 50 µM [1, 11]: 1 | fold induction at 50 µM [2, 12]: 1.1 | fold induction at 50 µM (E. cloacae; [13]): 1.3 | fold induction at 50 µM (K. pneumoniae; [14]): 1 | fold induction at 50 µM (P. aeruginosa; [15]): 0.9
